In experiment [1] the target is hGal-3 (Homo sapiens, UniProt P17931). The experiment is described as follows: ITC. In kind it is binding.
In experiment [2] the target is hGal-1 (Homo sapiens, UniProt P09382). Description: ITC. The class given is binding.

In article PMC7839768 (Chemistry (Weinheim an Der Bergstrasse, Germany), 2020) one finds Kd data, which are given here for 4 molecules.

Structures are written as SMILES.

Chain of hGal-3 (P17931 2-250): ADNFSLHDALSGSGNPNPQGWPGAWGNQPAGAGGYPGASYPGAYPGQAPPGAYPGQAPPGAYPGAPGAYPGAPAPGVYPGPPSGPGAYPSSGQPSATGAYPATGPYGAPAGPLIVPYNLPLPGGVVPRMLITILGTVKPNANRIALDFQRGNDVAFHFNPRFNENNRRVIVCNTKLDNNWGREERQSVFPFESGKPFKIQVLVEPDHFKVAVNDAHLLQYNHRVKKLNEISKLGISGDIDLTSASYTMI
Chain of hGal-1 (P09382 2-135): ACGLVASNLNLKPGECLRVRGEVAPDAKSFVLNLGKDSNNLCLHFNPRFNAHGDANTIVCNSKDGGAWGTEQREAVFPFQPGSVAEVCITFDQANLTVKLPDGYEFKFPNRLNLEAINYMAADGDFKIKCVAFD

In experiment [1], `OC[C@H]1O[C@@H]([Se][Se][C@@H]2O[C@H](CO)[C@H](O)[C@H](O)[C@H]2O)[C@H](O)[C@@H](O)[C@H]1O` [DSeDG] came in with a Kd of 2800 ± 180 µM.
Regarding `OC[C@H]1O[C@@H]([Se][C@@H]2O[C@H](CO)[C@H](O)[C@H](O)[C@H]2O)[C@H](O)[C@@H](O)[C@H]1O` [SeDG], the values for the Kd in experiment [1] and in experiment [2] were 93.1 ± 2.6 µM and 108 ± 1.4 µM, respectively.
Regarding `CC(=O)N[C@H]1[C@H](O[C@H]2[C@@H](O)[C@@H](CO)O[C@@H](O[C@H]3[C@H](O)[C@@H](NC(C)=O)[C@H](OCCN=[N+]=[N-])O[C@@H]3CO)[C@@H]2O)O[C@H](CO)[C@@H](O[C@@H]2O[C@H](CO)[C@H](O)[C@H](O)[C@H]2O)[C@@H]1O` [compound 1, 2‐Azidoethyl (β‐D‐galactopyranosyl)‐(1→4)‐(2‐acetamido‐2‐deoxy‐β‐D‐glucopyranosyl)‐(1→3)‐(β‐D‐galactopyranosyl)‐(1→4)‐2‐acetamido‐2‐deoxy‐β‐D‐glucopyranoside], the values for the Kd in experiment [1] and in experiment [2] were 5.6 ± 0.1 µM and 94.7 ± 2.2 µM, respectively.
Turning to `CC(=O)N[C@H]1[C@H](O[C@H]2[C@@H](O)[C@@H](CO)O[C@@H](O[C@H]3[C@H](O)[C@@H](O)[C@H](OCCCN)O[C@@H]3CO)[C@@H]2O)O[C@H](CO)[C@@H](O)[C@@H]1O[C@@H]1O[C@H](CO)[C@H](O)[C@H](O)[C@H]1O` [compound 2, 3‐Aminopropyl (β‐D‐galactopyranosyl)‐(1→3)‐(2‐acetamido‐2‐deoxy‐β‐D‐glucopyranosyl)‐(1→3)‐(β‐D‐galactopyranosyl)‐(1→4)‐β‐D‐glucopyranoside], the Kd in experiment [1] was 28.1 ± 0.5 µM; in experiment [2], 175 ± 3.2 µM.

Broadly, the Kd is a measure of binding affinity in units of concentration. High values mean lower affinity, low ones higher affinity.
